Results from ChEMBL document CHEMBL1201862, “PubChem BioAssay data set” (2004).
Active and inactive are the calls of the source.

Experiments:
[1] = target: T1, Neuropeptides B/W receptor type 1 (Homo sapiens, UniProt P48145); assay: Fluorescence-based dose response cell-based high throughput screening assay to identify antagonists of the G-protein coupled receptor 7 (GPR7). [Related pubchem assays: 1952 (Screening assay (GPR7 antagonists).), 1880 (Summary AID.)]; type: functional
T1 sequence (P48145 whole entry): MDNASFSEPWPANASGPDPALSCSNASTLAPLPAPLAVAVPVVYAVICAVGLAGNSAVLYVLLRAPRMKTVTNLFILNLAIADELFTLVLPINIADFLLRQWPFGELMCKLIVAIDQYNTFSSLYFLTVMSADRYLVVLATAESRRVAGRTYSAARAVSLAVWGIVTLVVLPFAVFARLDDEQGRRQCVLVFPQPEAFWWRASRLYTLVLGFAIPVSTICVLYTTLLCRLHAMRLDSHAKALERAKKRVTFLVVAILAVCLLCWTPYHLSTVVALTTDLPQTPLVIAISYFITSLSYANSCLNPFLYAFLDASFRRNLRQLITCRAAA

[2] = target: Melanin-concentrating hormone receptor 1 (Homo sapiens, UniProt Q99705); assay: Fluorescence-based counterscreen for antagonists of the G-protein coupled receptor 7 (GPR7): cell-based high throughput dose response assay to identify antagonists of the melanin-concentrating hormone receptor 1 (MCHR1).; type: functional
[3] = target: T2, Carboxy-terminal domain RNA polymerase II polypeptide A small phosphatase 1 (Homo sapiens, UniProt Q9GZU7); assay: inhibitors of CTDSP1, concentration-response testing, biochemical assay, absorbance-based, actives from ultra-high-throughput screening (AID 540297); type: functional
T2 sequence (Q9GZU7 whole entry): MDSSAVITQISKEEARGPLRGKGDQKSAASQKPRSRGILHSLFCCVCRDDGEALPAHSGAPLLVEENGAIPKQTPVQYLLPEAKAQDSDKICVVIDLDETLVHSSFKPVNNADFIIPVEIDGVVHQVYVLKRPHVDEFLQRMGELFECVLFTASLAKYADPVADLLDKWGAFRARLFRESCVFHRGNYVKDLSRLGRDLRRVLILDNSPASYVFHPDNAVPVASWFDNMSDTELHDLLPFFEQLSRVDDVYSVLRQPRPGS

[4] = target: Voltage-gated inwardly rectifying potassium channel KCNH2 (Homo sapiens, UniProt Q12809); assay: hERG protection from proarrhythmic block, potency, dose response, cell-based, thallium flux (AID 2121); type: ADME
cells [5] = assay: cells
[6] = cytotoxicity toward NIH3T3 fibroblasts, dose response, counter-screen, cell-based, ATP luminescence, mouse fibroblasts (AID 2010); type: functional;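 also: cells exposed to compound for about 90 hours before reading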
[7] = inhibitors of intracellular T. cruzi replication, confirmation, NIH3T3 host cells, beta-gal luminescence (AID 2044); type: functional, cell-based;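 also: intracellular parasites grown in NIH/3T3 mouse fibroblasts as host cells; luminescent beta-galactosidase reporter signal from transgenic T. cruzi replicating inside host cells; inhibitors lower the luminescence signal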
[8] = target: Heat shock protein HSP 90-alpha (Homo sapiens, UniProt P07900); assay: Luminescence-based dose response biochemical high throughput screening assay for inhibitors of the Heat Shock Protein 90 (HSP90). [Related pubchem assays: 1831 (Summary AID.), 1846 (Confirmation screen.), 1789 (Primary screen.)]
[9] = target: FAD-linked sulfhydryl oxidase ALR (Homo sapiens, UniProt P55789); assay: inhibitors of human ALR sulfhydryl oxidase, dose response, biochemical, H2O2 detection, luminescence, cherry-pick (AID 493248)
[10] = target: Photoreceptor-specific nuclear receptor (Homo sapiens, UniProt Q9Y5X4); assay: NR2E3 inverse agonists, dose response, biochemical, TR-FRET (AID 463256); type: functional
[11] = target: Peroxisome proliferator-activated receptor gamma/Nuclear receptor corepressor 2 (Homo sapiens, UniProt P37231+Q9Y618); assay: Counterscreen for NR2E3 inverse agonists: TR-FRET-based biochemical high throughput dose response assay to identify inverse agonists of the interaction between peroxisome proliferator-activated receptor gamma (PPARg) and nuclear receptor co-repressor 2 (NCOR2).; type: functional
BJ [12] = assay: cytotoxicity toward BJ-TERT-LT-ST fibroblasts, dose response, cell-based, RAS-independent, luminescence (AID 1935); type: functional; details: Homo sapiens;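 also: BJ fibroblasts immortalized with TERT plus LT and ST oncogenes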
[13] = Luminescence Cell-Based Dose Response HTS to Identify Inhibitors of 5'UTR Stem-Loop Driven Prion Protein mRNA Translation in H4 Neuroglioblastoma Cells. [Related pubchem assays: 1827 (Project Summary), 1813 (Primary HTS)]; type: functional
[14] = luciferase reporter signal reduction – luminescence, H4-C neuroglioblastoma cells, dose response (AID 2458); type: functional, cell-based;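 also: H4 neuroglioblastoma cells stably carrying a luciferase reporter gene fusion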
[15] = inhibitors of SNCA 5'UTR-driven translation, confirmation, luminescence, H4 neuroglioblastoma cells, dose confirmation (AID 2454); type: functional, cell-based;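 also: H4 neuroglioblastoma cells carrying an alpha-synuclein 5'UTR luciferase reporter; potency for inhibition of the luciferase signal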
cells [16] = type: functional, cell-based
BJ [17] = assay: cytotoxicity toward BJ-TERT fibroblasts, dose response, cell-based, RAS-independent, luminescence (AID 1933); type: functional; details: Homo sapiens
[18] = cytotoxicity toward DRD oncogenic fibroblasts, dose response, cell-based, non-viral oncogenic, luminescence (AID 1934); type: functional; details: Homo sapiens
[19] = inhibitors of firefly luciferase expression or activity, dose response, H4 neuroglioma cells, luminescence (AID 1990); type: functional, cell-based
[20] = cytotoxicity in HEK-293T cells, dose response, cytotoxicity control for TCR NF-kB inhibitor project, luminescence, T-cell screen hits (AID 489026); type: functional, cell-based;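 also: cells exposed to compound about 14 hours before the viability readout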
BJ [21] = assay: cells; type: functional, cell-based; details: Homo sapiens
[22] = inhibitors of SNCA 5'UTR-driven reporter translation, confirmation, H4 neuroglioma cells, luminescence (AID 1988); type: functional, cell-based
BJ [23] = assay: cytotoxicity toward Ras-transformed BJeLR fibroblasts, dose response, cell-based, alamar blue fluorescence, cherrypicked samples (AID 2631); type: functional; details: Homo sapiens;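 also: confirmatory dose-response assay in RAS-dependent BJ fibroblasts engineered with TERT, LT and ST, with cytotoxicity read by fluorescence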
[24] = target: T3, Fructose-bisphosphate aldolase (Mycobacterium tuberculosis, UniProt P9WQA3); assay: Fluorescence-based biochemical high throughput dose response assay for inhibitors of the fructose-bisphosphate aldolase (FBA) of M. tuberculosis.; type: functional
T3 sequence (P9WQA3 whole entry): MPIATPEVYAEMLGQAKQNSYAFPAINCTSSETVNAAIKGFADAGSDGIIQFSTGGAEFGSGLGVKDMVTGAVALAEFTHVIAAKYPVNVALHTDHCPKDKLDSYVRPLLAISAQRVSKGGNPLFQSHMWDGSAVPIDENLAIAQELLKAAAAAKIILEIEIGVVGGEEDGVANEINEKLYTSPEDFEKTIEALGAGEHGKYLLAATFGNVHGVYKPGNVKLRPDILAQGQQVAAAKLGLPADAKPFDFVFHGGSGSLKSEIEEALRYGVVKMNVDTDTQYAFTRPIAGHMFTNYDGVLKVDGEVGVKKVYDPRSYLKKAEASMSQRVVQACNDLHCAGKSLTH

Prothrombin = Prothrombin (Homo sapiens, UniProt P00734); assay: Thrombin 1536 HTS Dose Response Confirmation. [Related pubchem assays: 1046 (Thrombin 1536 HTS; hits were confirmed in this assay)]; type: functional
[25] = enhancers of respiration in Yfh1-depleted yeast, dose response, Friedreich's ataxia, plus single-dose screen (AID 1465); type: functional;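 also: yeast depleted of Yfh1p frataxin homolog grown on glycerol needing respiration; WST-1 tetrazolium dye reduction as measure of cellular dehydrogenase metabolic activity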
[26] = target: T4, Induced myeloid leukemia cell differentiation protein Mcl-1 (Homo sapiens, UniProt Q07820); assay: MCL1-BIM BH3 interaction inhibitors, dose response, biochemical, fluorescence polarization, BIM-BH3 peptide, 1536-well (AID 2217)
[27] = human group III sPLA2 inhibitors, dose response, biochemical, QFRET, IC50 (AID 743457);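 also: green fluorescence rise as the enzyme cleaves BODIPY PC-A2 in liposomes; potency for inhibition of the enzyme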
[28] = target: T5, Zinc finger protein mex-5 (Caenorhabditis elegans, UniProt Q9XUB2); assay: MEX-5/TCR-2 RNA interaction inhibitors, dose response, biochemical, C. elegans, fluorescence polarization (AID 1960)
T5 sequence (Q9XUB2 whole entry): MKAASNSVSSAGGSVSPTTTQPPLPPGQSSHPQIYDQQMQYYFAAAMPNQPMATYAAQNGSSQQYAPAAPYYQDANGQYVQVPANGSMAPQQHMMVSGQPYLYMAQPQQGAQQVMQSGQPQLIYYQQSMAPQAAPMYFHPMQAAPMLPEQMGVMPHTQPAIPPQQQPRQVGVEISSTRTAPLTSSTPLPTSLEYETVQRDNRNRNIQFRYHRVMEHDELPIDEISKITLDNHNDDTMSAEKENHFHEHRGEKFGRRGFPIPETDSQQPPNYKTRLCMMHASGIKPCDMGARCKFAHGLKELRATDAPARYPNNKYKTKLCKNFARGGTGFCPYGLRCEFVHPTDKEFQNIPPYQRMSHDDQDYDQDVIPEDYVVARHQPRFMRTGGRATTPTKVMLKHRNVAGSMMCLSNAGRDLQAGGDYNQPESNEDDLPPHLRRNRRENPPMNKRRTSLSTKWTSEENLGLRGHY

Bcl-2-like protein 1 = Bcl-2-like protein 1 (Homo sapiens, UniProt Q07817); assay: BCL-XL inhibitors, dose response, selectivity assay for MCL1 inhibitor project, biochemical, fluorescence polarization, 1536-well (AID 2218)
[29] = HepG2 cell cytotoxicity, dose response, cytotoxicity control, ATP luminescence, cherry-pick, activator set 2 (AID 1053143); type: functional, cell-based
[30] = target: Glucose-6-phosphate 1-dehydrogenase (Homo sapiens, UniProt P11413); assay: human G6PD enzyme inhibitors, dose response, selectivity assay for P. falciparum G6PD inhibitor project, biochemical, fluorescence (AID 504792); type: functional
Genome polyprotein = Genome polyprotein (dengue virus type 2, UniProt P29990); assay: Dengue-2 NS5 methyltransferase inhibitors, primary screen, biochemical, confirmation dose response (AID 588689); type: functional
[31] = target: T4, Induced myeloid leukemia cell differentiation protein Mcl-1; type: functional
Vero = Vero cell cytotoxicity, cytotoxicity control for flavivirus capping enzyme inhibitors (AID 588742); type: functional; details: Chlorocebus sabaeus
[32] = THP-1 cell cytotoxicity, dose response, cytotoxicity control for Vif-APOBEC3G degradation inhibitor project, THP-1 cells (AID 1117359); type: functional; details: Human immunodeficiency virus 1, THP-1
[33] = target: T6, RNA-binding protein pos-1 (Caenorhabditis elegans, UniProt G5EF15); assay: inhibitors of POS-1/mex-3 RNA binding, dose response, biochemical, fluorescence polarization (AID 1964);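 also: purified POS-1 fused to maltose binding protein made in E. coli; potency of compounds blocking POS-1 binding to fluorescent RNA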
T6 sequence (G5EF15 whole entry): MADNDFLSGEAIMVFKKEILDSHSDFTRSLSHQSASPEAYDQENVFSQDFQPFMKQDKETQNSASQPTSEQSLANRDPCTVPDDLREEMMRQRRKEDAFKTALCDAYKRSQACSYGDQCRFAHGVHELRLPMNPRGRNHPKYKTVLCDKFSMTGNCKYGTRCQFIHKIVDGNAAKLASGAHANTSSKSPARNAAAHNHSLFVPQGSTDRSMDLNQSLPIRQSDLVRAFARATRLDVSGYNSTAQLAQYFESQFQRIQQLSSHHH

Sequence of Voltage-gated inwardly rectifying potassium channel KCNH2 (Q12809 whole entry): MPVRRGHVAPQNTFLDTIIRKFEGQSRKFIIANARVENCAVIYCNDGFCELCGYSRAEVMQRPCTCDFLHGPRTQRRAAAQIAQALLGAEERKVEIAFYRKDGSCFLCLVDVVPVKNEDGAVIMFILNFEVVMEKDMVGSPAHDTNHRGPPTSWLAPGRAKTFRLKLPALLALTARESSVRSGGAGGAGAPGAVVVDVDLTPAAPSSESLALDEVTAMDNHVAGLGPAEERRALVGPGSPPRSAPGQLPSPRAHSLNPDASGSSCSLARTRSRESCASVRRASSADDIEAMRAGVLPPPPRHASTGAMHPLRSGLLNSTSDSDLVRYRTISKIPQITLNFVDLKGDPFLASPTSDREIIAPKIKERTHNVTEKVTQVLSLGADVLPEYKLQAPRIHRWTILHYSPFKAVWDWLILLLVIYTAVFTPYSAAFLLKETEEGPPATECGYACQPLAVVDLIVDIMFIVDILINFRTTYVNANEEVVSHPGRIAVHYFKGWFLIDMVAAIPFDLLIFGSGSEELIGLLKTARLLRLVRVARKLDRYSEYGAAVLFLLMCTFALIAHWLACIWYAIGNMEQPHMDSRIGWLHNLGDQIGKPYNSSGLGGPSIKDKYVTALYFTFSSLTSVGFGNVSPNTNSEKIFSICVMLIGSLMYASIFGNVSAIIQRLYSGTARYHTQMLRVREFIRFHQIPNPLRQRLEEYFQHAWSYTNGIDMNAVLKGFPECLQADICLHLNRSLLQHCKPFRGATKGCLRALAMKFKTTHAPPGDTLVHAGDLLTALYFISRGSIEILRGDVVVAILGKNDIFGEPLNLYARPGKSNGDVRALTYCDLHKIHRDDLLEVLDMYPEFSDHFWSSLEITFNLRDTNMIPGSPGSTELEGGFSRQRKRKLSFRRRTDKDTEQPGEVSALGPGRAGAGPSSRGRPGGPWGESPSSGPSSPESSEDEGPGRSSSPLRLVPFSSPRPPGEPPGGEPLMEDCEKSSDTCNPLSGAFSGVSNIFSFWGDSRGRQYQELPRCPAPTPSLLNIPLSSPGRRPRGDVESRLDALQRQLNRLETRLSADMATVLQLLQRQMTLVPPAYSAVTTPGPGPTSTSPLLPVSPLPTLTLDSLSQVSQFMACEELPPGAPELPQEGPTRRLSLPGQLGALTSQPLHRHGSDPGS
Sequence of Melanin-concentrating hormone receptor 1 (Q99705 whole entry, the tested form may be a part): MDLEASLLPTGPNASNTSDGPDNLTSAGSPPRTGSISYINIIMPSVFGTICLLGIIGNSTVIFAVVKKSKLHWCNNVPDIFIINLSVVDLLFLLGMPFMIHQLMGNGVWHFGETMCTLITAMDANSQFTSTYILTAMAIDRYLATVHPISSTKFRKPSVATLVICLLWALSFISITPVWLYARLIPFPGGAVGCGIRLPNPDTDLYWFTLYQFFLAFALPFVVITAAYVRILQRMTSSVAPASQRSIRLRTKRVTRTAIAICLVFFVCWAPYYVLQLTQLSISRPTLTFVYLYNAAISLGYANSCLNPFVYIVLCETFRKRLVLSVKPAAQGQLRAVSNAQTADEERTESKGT
T4 sequence (Q07820 whole entry): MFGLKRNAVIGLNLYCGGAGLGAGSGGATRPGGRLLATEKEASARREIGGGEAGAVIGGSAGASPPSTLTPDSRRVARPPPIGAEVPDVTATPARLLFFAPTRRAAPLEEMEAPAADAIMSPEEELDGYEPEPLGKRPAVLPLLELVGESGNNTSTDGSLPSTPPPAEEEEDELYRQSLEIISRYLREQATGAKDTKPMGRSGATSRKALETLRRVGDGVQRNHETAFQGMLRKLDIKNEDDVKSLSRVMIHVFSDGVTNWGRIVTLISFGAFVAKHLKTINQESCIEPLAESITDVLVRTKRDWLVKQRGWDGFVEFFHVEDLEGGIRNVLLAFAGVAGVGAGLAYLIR
Sequence of Photoreceptor-specific nuclear receptor (Q9Y5X4 whole entry): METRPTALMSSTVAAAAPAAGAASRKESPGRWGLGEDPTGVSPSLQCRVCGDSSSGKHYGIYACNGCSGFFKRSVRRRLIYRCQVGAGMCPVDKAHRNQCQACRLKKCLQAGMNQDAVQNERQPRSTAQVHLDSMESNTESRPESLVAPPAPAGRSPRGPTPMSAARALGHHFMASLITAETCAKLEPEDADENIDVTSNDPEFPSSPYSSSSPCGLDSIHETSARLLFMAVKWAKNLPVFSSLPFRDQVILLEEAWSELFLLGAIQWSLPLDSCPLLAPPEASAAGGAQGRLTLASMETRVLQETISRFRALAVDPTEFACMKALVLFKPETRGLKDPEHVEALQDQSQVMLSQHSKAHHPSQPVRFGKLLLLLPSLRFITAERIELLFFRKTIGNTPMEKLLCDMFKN
Sequence of Bcl-2-like protein 1 (Q07817 whole entry): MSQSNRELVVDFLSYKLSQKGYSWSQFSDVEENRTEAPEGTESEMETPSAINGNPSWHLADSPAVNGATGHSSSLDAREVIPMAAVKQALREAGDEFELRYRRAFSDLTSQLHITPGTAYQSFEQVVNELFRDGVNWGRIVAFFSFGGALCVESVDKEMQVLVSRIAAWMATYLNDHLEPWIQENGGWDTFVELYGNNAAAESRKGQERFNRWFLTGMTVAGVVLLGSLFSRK
Sequence of Genome polyprotein (P29990 2492-3391 limits assumed): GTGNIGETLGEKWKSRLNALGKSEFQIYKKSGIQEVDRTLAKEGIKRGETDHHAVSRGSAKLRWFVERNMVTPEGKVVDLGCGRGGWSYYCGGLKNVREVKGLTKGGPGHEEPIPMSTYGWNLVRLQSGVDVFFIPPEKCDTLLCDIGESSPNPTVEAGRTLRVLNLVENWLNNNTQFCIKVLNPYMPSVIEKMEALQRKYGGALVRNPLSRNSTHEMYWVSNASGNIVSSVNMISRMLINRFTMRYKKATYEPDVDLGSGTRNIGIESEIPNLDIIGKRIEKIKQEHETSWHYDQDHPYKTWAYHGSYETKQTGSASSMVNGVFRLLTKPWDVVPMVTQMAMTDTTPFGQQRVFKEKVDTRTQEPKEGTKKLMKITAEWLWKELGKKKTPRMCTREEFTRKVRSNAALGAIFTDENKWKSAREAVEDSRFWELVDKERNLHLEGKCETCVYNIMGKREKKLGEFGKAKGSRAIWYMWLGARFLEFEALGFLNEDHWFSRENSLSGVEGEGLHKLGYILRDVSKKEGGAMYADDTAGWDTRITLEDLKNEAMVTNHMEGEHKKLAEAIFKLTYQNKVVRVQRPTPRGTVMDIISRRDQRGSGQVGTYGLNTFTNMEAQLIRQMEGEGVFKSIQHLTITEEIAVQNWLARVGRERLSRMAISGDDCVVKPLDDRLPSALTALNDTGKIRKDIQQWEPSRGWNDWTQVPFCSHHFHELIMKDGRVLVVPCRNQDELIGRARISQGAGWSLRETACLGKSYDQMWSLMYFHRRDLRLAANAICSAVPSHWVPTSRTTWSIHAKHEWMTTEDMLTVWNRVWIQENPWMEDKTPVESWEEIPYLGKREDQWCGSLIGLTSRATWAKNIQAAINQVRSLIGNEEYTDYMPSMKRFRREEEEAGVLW
Sequence of FAD-linked sulfhydryl oxidase ALR (P55789 whole entry): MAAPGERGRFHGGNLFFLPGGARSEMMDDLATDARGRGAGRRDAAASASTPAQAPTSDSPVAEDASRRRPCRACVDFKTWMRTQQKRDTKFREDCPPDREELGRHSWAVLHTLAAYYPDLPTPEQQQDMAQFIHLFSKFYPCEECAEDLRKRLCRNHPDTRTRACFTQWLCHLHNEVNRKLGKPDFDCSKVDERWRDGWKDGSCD
Sequence of Glucose-6-phosphate 1-dehydrogenase (P11413 whole entry): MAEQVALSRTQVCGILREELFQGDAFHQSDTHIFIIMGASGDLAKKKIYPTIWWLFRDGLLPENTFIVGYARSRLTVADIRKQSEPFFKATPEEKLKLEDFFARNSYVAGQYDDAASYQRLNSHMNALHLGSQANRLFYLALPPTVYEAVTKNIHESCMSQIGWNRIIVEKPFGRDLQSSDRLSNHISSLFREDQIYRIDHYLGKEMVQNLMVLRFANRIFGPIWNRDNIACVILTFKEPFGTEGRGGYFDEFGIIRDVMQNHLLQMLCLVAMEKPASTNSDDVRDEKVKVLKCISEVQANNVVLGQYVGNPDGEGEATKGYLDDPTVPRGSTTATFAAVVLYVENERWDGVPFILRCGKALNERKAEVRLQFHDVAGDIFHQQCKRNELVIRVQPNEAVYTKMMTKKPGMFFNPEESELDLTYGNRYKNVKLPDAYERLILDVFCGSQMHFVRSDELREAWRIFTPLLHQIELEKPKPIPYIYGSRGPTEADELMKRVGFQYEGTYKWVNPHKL

## CCc1ccc(C2CC(c3ccccc3Cl)Nc3nc(N)nn32)cc1 (stereo not drawn)
[1]
  IC50: 5.58 µM (active)
[2]
  IC50: 19.6 µM (not active)

## Cc1ccccc1NC(=O)Cn1nnc(S(=O)(=O)c2ccc(C(C)(C)C)cc2)c1N
[3]
  IC50: 7.74 µM (active)
[1]
  IC50: > 43.8 µM (not active)
[2]
  IC50: > 43.8 µM (not active)

## CCn1c(O)c(N=NC2=NC(=O)CS2)c2ccccc21
[4]
  EC50: 4.83 µM (active)

## CN(C)CCCN(C(=O)COc1ccc(Cl)cc1)c1nc2cc3c(cc2s1)OCCO3
Cells [5]
  EC50: 0.069 µM (active)
[6]
  EC50: > 60 µM (not active)
[7]
  EC50: < 0.1 µM (active)

## O=C(O)c1cccc(N2C(=O)/C(=C/c3nc4ccccc4[nH]3)SC2=S)c1
[8]
  IC50: 8.93 µM (active)
[9]
  AC50: 3.31 µM (active)

## O=C(Nc1ccc(Cl)cc1)c1ccc(-c2ccccn2)s1
[10]
  IC50: 8.84 µM (active)
[11]
  IC50: 10.9 µM (not active)

## O=C(Nc1ccc(-c2ccc3nncn3n2)cc1)c1ccc(Br)o1
[10]
  IC50: 3.62 µM (active)
[11]
  IC50: 4.01 µM (active)

## O=C(NCC(c1cccnc1)N1CCN(c2ccccc2)CC1)Oc1ccccc1 (stereo not drawn)
Cells [5]
  EC50: 0.052 µM (active)
[6]
  EC50: > 30 µM (not active)
[7]
  EC50: < 0.1 µM (active)

## N#Cc1ccc(-c2cccs2)nc1SCc1cccnc1
BJ [12]
  EC50: 3.66 µM (inconclusive)
[13]
  EC50: 0.156 µM (active)
[14]
  EC50: 0.841 µM (active)
[15]
  EC50: > 12 µM (not active)
Cells [16]
  EC50: 1.24 µM (active)
BJ [17]
  EC50: 7.55 µM (inconclusive)
[18]
  EC50: 11.5 µM (inconclusive)
[19]
  EC50: 5.46 µM (active)
[20]
  IC50: > 80 µM (inactive)
BJ [21]
  EC50: 15 µM (active)
[22]
  EC50: < 0.1 µM (active)
BJ [23]
  EC50: 0.188 µM (active)
[24]
  IC50: > 1.11 µM (active)

## COC(=O)c1nnc(NC(=O)c2ccc(F)cc2)[nH]1
Prothrombin
  IC50: 0.297 µM (active)

## CCN(CC)c1ccc(NC(=S)NC(=O)c2cccs2)cc1
[4]
  EC50: 1.24 µM (active)

## CCC(=O)n1nc(-c2ccc(OC)cc2)nc1NCc1cccs1
Prothrombin
  IC50: 1.48 µM (active)

## O=C(NNc1nc2ccc(F)cc2s1)c1cccc(F)c1
[25]
  EC50: > 100 µM (active)
[6]
  EC50: 6.48 µM (active)
[7]
  EC50: 3.84 µM (active)

## C=CC/N=c1\scc(-c2ccco2)n1/N=C/c1ccc(O)c(O)c1O
[26]
  IC50: 2.94 µM (active)
[27]
  IC50: 49.6 µM (inactive)
[28]
  EC50: 2.68 µM (active)
Bcl-2-like protein 1
  IC50: > 109 µM (not active)
[29]
  AC50: 26 µM (active)
[30]
  IC50: > 80 µM (inactive)
Genome polyprotein
  IC50: 83.8 µM (active)
[31]
  IC50: 2.81 µM (not active)
Vero
  CC50: 22.8 µM (active)
[32]
  CC50: > 40 µM (active)
[33]
  EC50: 40.6 µM (active)
